ChEMBL document CHEMBL1152074, “Synthesis and antimalarial evaluation of 2,3,5-trioxabicyclo[2.2.2]octanes, models for the putative pharmacophore of qinghaosu (artemisinin)” (Bioorg Med Chem Lett, 1992)
Converted amounts (≈) assume the structure as drawn.

Legend:
Assay type in all cases: functional, organism-based
[1] = tested on: Plasmodium falciparum; assay: Inhibitory concentration (IC50) against chloroquine-sensitive falciparum sierra leone […] in human malaria; 10000-46608
[2] = tested on: Plasmodium falciparum; assay: Inhibitory concentration IC50 against chloroquine-resistant falciparum indochina(W-2) malaria in humans; 7079-48759
[3] = tested on: Plasmodium falciparum; assay: Inhibitory concentration (IC50) against chloroquine-resistant falciparum Indochina W2 in human malaria
[4] = tested on: Plasmodium falciparum; assay: Inhibitory concentration (IC50) against chloroquine-sensitive falciparum sierra leone […] in human malaria
[5] = tested on: Plasmodium falciparum; assay: Inhibitory concentration (IC50) against chloroquine-sensitive falciparum sierra leone […] in human malaria; 979-50000
[6] = tested on: Plasmodium falciparum; assay: Inhibitory concentration (IC50) against chloroquine-resistant falciparum indochina W-2 in human malaria; 60-50000
[7] = tested on: Plasmodium falciparum; assay: Inhibitory concentration (IC50) against chloroquine-sensitive falciparum sierra leone […] in human malaria; 9569-21648
[8] = tested on: Plasmodium falciparum; assay: Inhibitory concentration IC50 against chloroquine-resistant falciparum W-2 indochina human malaria; 8000-18088
[9] = Plasmodium falciparum, read-out: IC50

| SMILES | IC50 [4] [µg/mL] | IC50 [3, 9] [µg/mL] | also measured |
| --- | --- | --- | --- |
| CO[C@]1(C)CC[C@@H](OO)CO1 |  |  | IC50 [1]: 10 µg/mL (≈ 61.7 µM); IC50 [2]: 7.08 µg/mL (≈ 43.6 µM) |
| CC12CCC(CO1)OO2 (stereo unspecified) | 50 (≈ 384 µM) |  | IC50 [3]: > 100 µg/mL |
| C1CC2OCC1OO2 (stereo unspecified) |  |  | IC50 [5]: 0.979 µg/mL (≈ 8.43 µM); IC50 [6]: 0.06 µg/mL (≈ 0.517 µM) |
| COC1CC[C@@H]([C@H](C)O)OO1 (stereo partly specified) | 7.35 (≈ 45.3 µM) | 12.3 (≈ 75.7 µM) |  |
| COC1CCC(CO)OO1 (stereo unspecified) | 0.531 (≈ 3.58 µM) | 0.454 (≈ 3.06 µM) |  |
| C[C@@H]1OC2CCC1OO2 (stereo partly specified) | 28.5 (≈ 219 µM) | 28.8 (≈ 222 µM) |  |
| C[C@H]1OC2CCC1OO2 (stereo partly specified) | 8.46 (≈ 65 µM) | 13.1 (≈ 101 µM) |  |
| COC1CCC(OO)CO1 (stereo unspecified) | 0.472 (≈ 3.19 µM) | 1.05 (≈ 7.06 µM) |  |
| CO[C@H]1CC[C@@H](OO)[C@@H](C)O1 |  |  | IC50 [7]: 9.57 µg/mL (≈ 59 µM); IC50 [8]: 8 µg/mL (≈ 49.3 µM) |
| CO[C@H]1CC[C@H](OO)[C@@H](C)O1 | 1.01 (≈ 6.2 µM) | 3.44 (≈ 21.2 µM) |  |
| C[C@@H]1CC[C@H]2[C@@H](C)C(=O)O[C@@H]3O[C@@]4(C)CC[C@@H]1[C@]32OO4 [ARTEMISININ] | 0.00202 (≈ 0.00715 µM) |  |  |
